Literature values in patent publication EP4635967A1, “OLIGONUCLEOTIDE COMPRISING LIPOPHILIC MONOMER AND USE THEREOF IN NON-LIVER DELIVERY” (Tuojie Biotech (Shanghai) Co., Ltd., priority 2022, dated 2024).

Conditions: octanol-water partition coefficient, example values in the definition of lipophilic moiety

SMILES | logKow
CC(C)CCC[C@@H](C)[C@H]1CC[C@H]2[C@@H]3CC=C4C[C@@H](OC(=O)NCCCCCCO)CC[C@]4(C)[C@H]3CC[C@]12C [cholesteryl N-(hexan-6-ol)carbamate] | 10.7
NCCCCCCO [6-aminohexanol] | about 0.7
